The text below walks through data of PubChem BioAssay (NCI).

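Cultured in 96-well plates, cells were exposed to test compound for 48 hours across five concentrations. At the GI50, growth is halved. TGI marks complete inhibition of growth.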

Among the test systems are HCC-2998 colon; NCI-H460 lung; NCI-H23 lung; MALME-3M melanoma; COLO 205 colon; OVCAR-3 ovarian; SR leukemia; SK-OV-3 ovarian; LOX IMVI melanoma; NCI/ADR-RES ovarian.
Holding throughout (assay): inhibition of tumour cell growth, NCI panel, 48 h

Take `NC1=NS(=O)(=O)Nc2nc(-c3cccs3)[nH]c21`: the TGI with HCC-2998 colon, in the assay on NCI-H460 lung, with NCI-H23 lung, with MALME-3M melanoma, in the assay with COLO 205 colon and in the assay on OVCAR-3 ovarian was > 100 µM each time. Besides, the TGI with SR leukemia, with SK-OV-3 ovarian and with LOX IMVI melanoma was > 100 µM each time.

Turning to `C=C1C(=O)OC2/C=C(\C)CC(O)/C=C(/CO)CC(OC(=O)/C(C)=C/C)C12` (configuration not stated), the TGI with HCC-2998 colon is 134 µM; in the assay with NCI-H460 lung, 168 µM; with NCI-H23 lung it was 136 µM; in the assay with MALME-3M melanoma, 66.6 µM; in the assay with NCI/ADR-RES ovarian, 538 µM; in the assay on COLO 205 colon, 96.8 µM. Also, the TGI in the assay with OVCAR-3 ovarian came to 122 µM; with SK-OV-3 ovarian, 309 µM.

Consider `O=C(/N=C/c1c(O)c2ccccc2oc1=O)NC1CCCCC1`, for which the TGI with HCC-2998 colon, with NCI-H460 lung, in the assay with NCI-H23 lung, in the assay on COLO 205 colon, in the assay with SR leukemia and in the assay with LOX IMVI melanoma was > 100 µM each time.

Take `CC(O)=NC(Cc1ccc2ccccc2c1)C(O)=NC(Cc1ccc(Cl)cc1)C(O)=NC(Cc1c[nH]c2ccccc12)C(O)=NC(CO)C(O)=NC(Cc1ccc(O)cc1)C(O)=NC(CCCN=C(N)N)C(O)=NC(CC(C)C)C(O)=NC(CCCN=C(N)N)C(=O)N1CCCC1C(O)=NC(C)C(=N)O` (configuration not stated): the TGI in the assay with HCC-2998 colon, in the assay on NCI-H460 lung, in the assay on NCI-H23 lung, in the assay with MALME-3M melanoma, in the assay with NCI/ADR-RES ovarian and in the assay with COLO 205 colon was > 100 µM in each case. Besides, the TGI in the assay with OVCAR-3 ovarian is > 100 µM; in the assay with SR leukemia, > 100 µM; in the assay on SK-OV-3 ovarian it was 72.3 µM.

As for `Cc1onc(-c2c(F)cccc2Cl)c1C(=O)N[C@@H]1C(=O)N2[C@@H]1SC(C)(C)[C@@H]2C(=O)O`, the TGI in the assay with NCI-H460 lung, in the assay on NCI-H23 lung, with MALME-3M melanoma, in the assay on NCI/ADR-RES ovarian, with COLO 205 colon and in the assay with OVCAR-3 ovarian was > 100 µM each time. Also, the TGI with SR leukemia and in the assay on SK-OV-3 ovarian was > 100 µM in each case.

Consider `CC(C)Cc1cccc(C(C)C)c1NC(=O)CCC(=O)N/N=C1\C(=N/NC(=O)CCC(=O)Nc2c(C(C)C)cccc2C(C)C)C(c2ccc3c(c2)OCO3)Oc2ccccc21` (configuration not stated), for which the TGI in the assay with HCC-2998 colon, with NCI-H460 lung, in the assay on NCI-H23 lung, in the assay with COLO 205 colon, in the assay on SR leukemia and in the assay on SK-OV-3 ovarian was > 100 µM each time. Also, the TGI in the assay with LOX IMVI melanoma is > 100 µM.

Consider `FC(F)(F)C1=NC(=NNc2nnc(-c3ccccc3)c(-c3ccccc3)n2)N=C(C(F)(F)F)C1`, for which the TGI was > 88.9 µM with HCC-2998 colon; > 100 µM with NCI-H460 lung; > 100 µM in the assay with NCI-H23 lung; > 100 µM with MALME-3M melanoma; > 100 µM with NCI/ADR-RES ovarian; 61.4 µM in the assay on COLO 205 colon. Besides, the TGI with OVCAR-3 ovarian, with SK-OV-3 ovarian and in the assay with LOX IMVI melanoma was > 100 µM throughout.

As for `CS(=O)(=O)OCc1c(O)c2c(c(O)c1COS(C)(=O)=O)C(=O)C=CC2=O`, the TGI with HCC-2998 colon, in the assay with NCI-H23 lung, with MALME-3M melanoma, with COLO 205 colon, in the assay on OVCAR-3 ovarian and with SR leukemia was > 100 µM in each case. For the same molecule, in the assay with SK-OV-3 ovarian, the TGI is > 100 µM.

Consider `O=c1cc(-c2nc3ccccc3[nH]2)[nH]c2nc(-c3nc4ccccc4[nH]3)cc(-c3ccc(Cl)cc3)c12`, for which the TGI was 43.6 µM in the assay with NCI-H460 lung; > 100 µM in the assay with NCI-H23 lung; 71.2 µM in the assay on MALME-3M melanoma; 91.3 µM with NCI/ADR-RES ovarian; 24.6 µM in the assay on COLO 205 colon; 63.4 µM in the assay with OVCAR-3 ovarian. The TGI in the assay with SR leukemia was 46.6 µM; in the assay on SK-OV-3 ovarian, 46.1 µM; with LOX IMVI melanoma, 31.8 µM.

In the case of `CN(C)CCC(C(=O)C(C)(C)C)c1ccccn1` (configuration not stated), the TGI in the assay on HCC-2998 colon, in the assay on NCI-H460 lung, in the assay on NCI-H23 lung, in the assay on MALME-3M melanoma, with NCI/ADR-RES ovarian and in the assay on COLO 205 colon was > 100 µM each time. The TGI in the assay on OVCAR-3 ovarian is 93.6 µM; in the assay on SR leukemia, > 100 µM; with SK-OV-3 ovarian, > 100 µM; in the assay with LOX IMVI melanoma it was > 100 µM.

`C[C@H](O)C(=O)SC[C@H](NC(=O)CC[C@@H](N)C(=O)O)C(=O)NCC(=O)O`: the TGI with HCC-2998 colon, in the assay with NCI-H460 lung, in the assay on NCI-H23 lung, in the assay on MALME-3M melanoma, with COLO 205 colon and in the assay on OVCAR-3 ovarian was > 100 µM in each case. Moreover, the TGI with SR leukemia, in the assay with SK-OV-3 ovarian and with LOX IMVI melanoma was > 100 µM in each case.

Consider `COc1c2ccoc2c(S(=O)(=O)Nc2ccc(Cl)cc2)c2oc(C)cc(=O)c12`, for which the TGI in the assay with HCC-2998 colon, in the assay with NCI-H460 lung, in the assay on NCI-H23 lung, in the assay with MALME-3M melanoma, in the assay on NCI/ADR-RES ovarian and with COLO 205 colon was > 100 µM throughout. Besides, the TGI with OVCAR-3 ovarian, in the assay with SK-OV-3 ovarian and in the assay with LOX IMVI melanoma was > 100 µM in each case.

With `COc1ccc(-n2cc(-c3ccc(OC)c(OC)c3)nc2SCc2ccccc2)cc1Cl`, the GI50 was 19.3 µM in the assay with HCC-2998 colon; 25.5 µM in the assay on NCI-H460 lung; 22.7 µM in the assay on NCI-H23 lung; 42.7 µM in the assay on NCI/ADR-RES ovarian; 19 µM in the assay on COLO 205 colon; 20.6 µM with OVCAR-3 ovarian. In addition, the GI50 with SR leukemia is 16 µM; with SK-OV-3 ovarian, 66.6 µM; in the assay on LOX IMVI melanoma, 34.7 µM. The TGI in the assay on HCC-2998 colon was 45.5 µM; in the assay on NCI-H460 lung, > 100 µM; in the assay on NCI-H23 lung, > 100 µM; in the assay on NCI/ADR-RES ovarian it was > 100 µM; in the assay on COLO 205 colon it was 45.4 µM; in the assay on OVCAR-3 ovarian, > 100 µM. Further, the TGI was 51.1 µM with SR leukemia, > 100 µM in the assay with SK-OV-3 ovarian and > 100 µM in the assay with LOX IMVI melanoma.

`ClCC1(CCl)COC1`: the TGI in the assay on HCC-2998 colon, in the assay on NCI-H460 lung, in the assay with NCI-H23 lung, in the assay on NCI/ADR-RES ovarian, with COLO 205 colon and in the assay on OVCAR-3 ovarian was > 100 µM each time. Also, the TGI in the assay on SR leukemia, in the assay with SK-OV-3 ovarian and in the assay with LOX IMVI melanoma was > 100 µM throughout.

As to `Oc1ccc2ccccc2c1Cc1c(O)ccc2ccccc12`, the TGI with HCC-2998 colon is 40.6 µM; in the assay on NCI-H460 lung it was > 100 µM; in the assay with NCI-H23 lung it was 37.8 µM; with MALME-3M melanoma it was 28.9 µM; with NCI/ADR-RES ovarian it was 37.4 µM; with COLO 205 colon, 36.5 µM. Also, the TGI with OVCAR-3 ovarian worked out at 28.4 µM; with SK-OV-3 ovarian, 35 µM; in the assay with LOX IMVI melanoma, 38.7 µM.

On to `CCCC(=O)OCC(O)CO` (configuration not stated), for which the TGI in the assay with NCI-H460 lung, in the assay on NCI-H23 lung, in the assay on MALME-3M melanoma, in the assay on COLO 205 colon, in the assay on SR leukemia and in the assay on SK-OV-3 ovarian was > 5000 µM each time. In addition, in the assay on LOX IMVI melanoma, the TGI was > 5000 µM.

Regarding `C[C@]12CC[C@H](O)CC1=CC[C@@H]1[C@@H]2CC[C@]2(C)C(=O)CC[C@@H]12`, the TGI with HCC-2998 colon, in the assay on NCI-H23 lung, in the assay with MALME-3M melanoma, with NCI/ADR-RES ovarian, in the assay on COLO 205 colon and with OVCAR-3 ovarian was > 100 µM throughout. Also, the TGI in the assay on SR leukemia, with SK-OV-3 ovarian and in the assay with LOX IMVI melanoma was > 100 µM in each case.

With `CO[C@]12C[C@H](CNC(=O)c3cc(Br)c(Br)[nH]3)O[C@H]1NC(=O)N2`, the TGI with HCC-2998 colon, in the assay on NCI-H460 lung, with NCI-H23 lung, in the assay on MALME-3M melanoma, in the assay with NCI/ADR-RES ovarian and in the assay on COLO 205 colon was > 100 µM throughout. Further, the TGI in the assay on OVCAR-3 ovarian, in the assay with SR leukemia, in the assay on SK-OV-3 ovarian and in the assay with LOX IMVI melanoma was > 100 µM in each case.
